In patent US20120115852A1, “HETEROCYCLIC COMPOUNDS AS AUTOTAXIN INHIBITORS” (Merck Patent Gesellschaft Mit Beschrankter Haftung, priority 2009, published 2012):

Target: T1, recombinant autotaxin (Homo sapiens, UniProt Q13822)
T1 construct: made in house; host or cells: Hi5 insect cells (baculovirus)
Assay: Autotaxin test (enzyme test), Amplex Red fluorescence with LPC substrate
Type: biochemical
Details: autotaxin inhibition (enzyme test); for remaining activity at 10 µM: 10 μM compound, read-out: % Control at 10 μM
Method in brief: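 Purified recombinant autotaxin (baculovirus Hi5-expressed) pre-incubated with compound 30 min at 22° C, then LPC (final 75 μM) added and reacted 90 min at 37° C in Tris pH 8 buffer with CaCl2. Choline released was coupled via alkaline phosphatase, choline oxidase and peroxidase to Amplex Red; resorufin fluorescence read in kinetic mode (ex 485/em 612 nm).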

Structure (SMILES)	remaining activity at 10 µM	IC50
CC(C)(C)CC(=O)N1CCN2C(=O)c3cc(-c4ccc(F)cc4)ccc3NC(=O)C2C1 (centres unmarked) [Compound A130, 2-(3,3-Dimethylbutyryl)-7-(4-fluorophenyl)-1,3,4,11a-tetrahydro-2H,10H-2,4a,10-triaza-dibenzo[a,d]cycloheptene-5,11-dione]	-1%	> 1 µM
CC(C)(C)CC(=O)N1CCN2C(=O)c3cc(-c4ccccc4)ccc3NC(=O)C2C1 (centres unmarked) [Compound A131, 2-(3,3-Dimethylbutyryl)-7-phenyl-1,3,4,11a-tetrahydro-2H,10H-2,4a,10-triaza-dibenzo[a,d]cycloheptene-5,11-dione]	14%	> 1 µM
CN(C)CCN1C(=O)C2CN(C(=O)CC(C)(C)C)CCN2C(=O)c2cc(-c3ccc(Cl)cc3)ccc21 (centres unmarked) [Compound A134, 7-(4-Chlorophenyl)-10-(2-dimethylaminoethyl)-2-(3,3-dimethylbutyryl)-1,3,4,11a-tetrahydro-2H,10H-2,4a,10-triazadibenzo[a,d]cycloheptene-5,11-dione]	-19%	> 1 µM
O=C1Nc2ccc(-c3ccc(Cl)cc3)cc2C(=O)N2CCN(C(=O)C(F)(F)F)CC12 (centres unmarked) [Compound A136, 7-(4-Chlorophenyl)-2-(2,2,2-trifluoroacetyl)-1,3,4,11a-tetrahydro-2H,10H-2,4a,10-triazadibenzo-[a,d]cycloheptene-5,11-dione]	63%	
CC(C)(C)[C@H](N)C(=O)N1CCN2C(=O)c3cc(-c4ccc(Cl)cc4)ccc3NC(=O)C2C1 (stereo partly drawn) [Compound A137, 2-((S)-2-Amino-3,3-dimethylbutyryl)-7-(4-chloro-phenyl)-1,3,4,11a-tetrahydro-2H,10H-2,4a,10-triazadibenzo[a,d]cycloheptene-5,11-dione]	-18%	> 1 µM
CO[C@H](C(=O)N1CCN2C(=O)c3cc(-c4ccc(Cl)cc4)ccc3NC(=O)C2C1)C(C)(C)C (stereo partly drawn) [Compound A138, 7-(4-Chlorophenyl)-2-((S)-2-methoxy-3,3-dimethyl-butyryl)-1,3,4,11a-tetrahydro-2H,10H-2,4a,10-triazadibenzo[a,d]cycloheptene-5,11-dione]	-21%	0.1 to 1 µM
C#Cc1ccc(-c2ccc3c(c2)C(=O)N2CCN(C(=O)CC(C)(C)C)CC2C(=O)N3)cc1 (centres unmarked) [Compound A140, 2-(3,3-Dimethylbutyryl)-7-(4-ethynylphenyl)-1,3,4,11a-tetrahydro-2H,10H-2,4a,10-triaza-dibenzo[a,d]cycloheptene-5,11-dione]	-10%	> 1 µM

The next lines start with the values.

remaining activity at 10 µM	IC50	Structure (SMILES)
84%		CC(C)(C)CC(=O)N1CCN2C(=O)c3cc(-c4ccc(C#N)cc4)ccc3NC(=O)C2C1 (centres unmarked) [Compound A132, 4-[2-(3,3-Dimethylbutyryl)-5,11-dioxo-1,2,3,4,5,10,11,11a-octahydro-2,4a,10-triaza-dibenzo[a,d]cyclohepten-7-yl]benzonitrile]
27%	> 1 µM	CC(C)(C)CC(=O)N1CCN2C(=O)c3cc(OC(F)(F)F)ccc3NC(=O)C2C1 (centres unmarked) [Compound A133, 2-(3,3-Dimethylbutyryl)-7-trifluoromethoxy-1,3,4,11a-tetrahydro-2H,10H-2,4a,10-triaza-dibenzo[a,d]cycloheptene-5,11-dione]
-9%	> 1 µM	COCCN1C(=O)C2CN(C(=O)CC(C)(C)C)CCN2C(=O)c2cc(-c3ccc(Cl)cc3)ccc21 (centres unmarked) [Compound A135, 7-(4-Chlorophenyl)-2-(3,3-dimethylbutyryl)-10-(2-methoxyethyl)-1,3,4,11a-tetrahydro-2H,10H-2,4a,10-triazadibenzo[a,d]cycloheptene-5,11-dione]
45%	> 1 µM	CC(C)(C)CC(=O)N1CCN2C(=O)c3cc(-c4ccc(Cl)cc4)cnc3NC(=O)C2C1 (centres unmarked) [Compound A139, 3-(4-Chlorophenyl)-8-(3,3-dimethylbutyryl)-7,8,9,9a-tetrahydro-6H,11H-1,5a,8,11-tetraazadibenzo-[a,d]cycloheptene-5,10-dione]
